Reference: patent publication US10947213B1 (Merck Patent GmbH, priority 2015, dated 2021)

Molecular target: T1, TLR7/NFKb HEK cells (Homo sapiens, UniProt Q9NYK1)
T1 construct: expressed in transfected cells; host or cells: HEK cells (TLR7/NFKb reporter line)
T1 sequence (Q9NYK1 27-1049): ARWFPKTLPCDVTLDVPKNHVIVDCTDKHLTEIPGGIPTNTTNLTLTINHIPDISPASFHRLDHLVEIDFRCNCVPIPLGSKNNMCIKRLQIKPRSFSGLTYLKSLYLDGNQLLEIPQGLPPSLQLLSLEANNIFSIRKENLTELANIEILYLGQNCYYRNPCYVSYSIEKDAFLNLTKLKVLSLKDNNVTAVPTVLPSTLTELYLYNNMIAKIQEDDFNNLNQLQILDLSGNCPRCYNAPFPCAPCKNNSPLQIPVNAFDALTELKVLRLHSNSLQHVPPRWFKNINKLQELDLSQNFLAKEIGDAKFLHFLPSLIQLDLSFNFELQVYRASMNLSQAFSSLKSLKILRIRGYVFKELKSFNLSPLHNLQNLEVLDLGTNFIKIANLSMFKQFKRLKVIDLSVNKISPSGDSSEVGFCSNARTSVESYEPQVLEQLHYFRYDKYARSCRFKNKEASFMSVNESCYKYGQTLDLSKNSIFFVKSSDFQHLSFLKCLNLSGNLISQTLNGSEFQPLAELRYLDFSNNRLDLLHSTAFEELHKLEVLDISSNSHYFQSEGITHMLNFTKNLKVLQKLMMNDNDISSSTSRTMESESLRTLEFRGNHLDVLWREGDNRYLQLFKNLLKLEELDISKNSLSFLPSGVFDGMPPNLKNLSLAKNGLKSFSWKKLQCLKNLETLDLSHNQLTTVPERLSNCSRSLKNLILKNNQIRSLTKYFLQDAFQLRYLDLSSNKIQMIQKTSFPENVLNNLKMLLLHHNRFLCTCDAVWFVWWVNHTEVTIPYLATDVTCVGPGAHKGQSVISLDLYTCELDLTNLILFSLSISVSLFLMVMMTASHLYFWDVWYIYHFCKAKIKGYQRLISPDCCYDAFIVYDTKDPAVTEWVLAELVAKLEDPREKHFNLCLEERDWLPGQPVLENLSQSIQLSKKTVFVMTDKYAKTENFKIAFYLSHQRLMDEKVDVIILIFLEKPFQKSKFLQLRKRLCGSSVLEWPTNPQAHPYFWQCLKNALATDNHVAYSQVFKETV
Assay: HEK Cell Assay (TLR7/NFKb reporter, Steady-Glo luciferase readout)
Assay type: cell-based
Conditions: 30 min compound preincubation, then R*48 agonist for 5 hours, read-out: Potency
How it was run: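 Steady-Glo luminescence after 5 h stimulation with R*48 agonist, following 30 min compound preincubation. Assay run in HEK cells carrying a TLR7/NFKb luciferase reporter, plated at 5000 cells/well and grown 24 h at 37° C (10% CO2) before treatment.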

Row | Structure (SMILES) | IC50 [nM]
1 | C[C@H]1C[C@@H](NC(=O)CC2(C)CCN(C)CC2)CN(c2ccc(C#N)c3nccnc23)C1 [Compound 233, N-[(3R,5S)-1-(8-cyanoquinoxalin-5-yl)-5-methylpiperidin-3-yl]-2-(1,4-dimethylpiperidin-4-yl)acetamide] | < 1000
2 | C[C@H]1C[C@@H](NC(=O)CC2CCN(CC(F)F)CC2)CN(c2ccc(C#N)c3nccnc23)C1 [Compound 234, N-[(3R,5S)-1-(8-cyanoquinoxalin-5-yl)-5-methylpiperidin-3-yl]-2-[1-(2,2-difluoroethyl)piperidin-4-yl]acetamide] | < 1000
3 | C[C@H]1C[C@@H](NC(=O)C2CC(F)(F)C2)CN(c2ccc(C#N)c3nccnc23)C1 [Compound 235, N-[(3R,5S)-1-(8-cyanoquinoxalin-5-yl)-5-methylpiperidin-3-yl]-3,3-difluorocyclobutane-1-carboxamide] | < 1000
4 | C[C@H]1C[C@@H](NC(=O)C2CCN(C)C2)CN(c2ccc(C#N)c3nccnc23)C1 (stereo partly drawn) [Compound 236, N-[(3R,5S)-1-(8-cyanoquinoxalin-5-yl)-5-methylpiperidin-3-yl]-1-methylpyrrolidine-3-carboxamide] | < 1000
5 | C[C@H]1C[C@@H](NC(=O)CN2CCOCC2)CN(c2ccc(C(F)(F)F)c3nccnc23)C1 [Compound 249, N-[(3R,5S)-5-methyl-1-[8-(trifluoromethyl)quinoxalin-5-yl]piperidin-3-yl]-2-(morpholin-4-yl)acetamide] | < 1000
6 | C[C@H]1C[C@@H](NC(=O)CO)CN(c2ccc(C(F)(F)F)c3nccnc23)C1 [Compound 250, 2-hydroxy-N-[(3R,5S)-5-methyl-1-[8-(trifluoromethyl)quinoxalin-5-yl]piperidin-3-yl]acetamide] | < 1000
7 | C[C@H]1C[C@@H](NC(=O)C2(O)CC2)CN(c2ccc(C(F)(F)F)c3nccnc23)C1 [Compound 251, 1-hydroxy-N-[(3R,5S)-5-methyl-1-[8-(trifluoromethyl)quinoxalin-5-yl]piperidin-3-yl]cyclopropane-1-carboxamide] | 1000 to 10000
8 | C[C@H]1C[C@@H](NC(C)(C)CO)CN(c2ccc(C(F)(F)F)c3nccnc23)C1 [Compound 252, 2-methyl-2-[[(3R,5S)-5-methyl-1-[8-(trifluoromethyl)quinoxalin-5-yl]piperidin-3-yl]amino]propan-1-ol] | 1000 to 10000
9 | C[C@H]1C[C@@H](NC(=O)CN(C)C)CN(c2ccc(C(F)(F)F)c3nccnc23)C1 [Compound 254, 2-(dimethylamino)-N-[(3R,5S)-5-methyl-1-[8-(trifluoromethyl)quinoxalin-5-yl]piperidin-3-yl]acetamide] | < 1000
10 | C[C@H]1C[C@@H](NC(=O)C2CC(F)(F)C2)CN(c2ccc(C(F)(F)F)c3nccnc23)C1 [Compound 257, 3,3-difluoro-N-[(3R,5S)-5-methyl-1-[8-(trifluoromethyl)quinoxalin-5-yl]piperidin-3-yl]cyclobutane-1-carboxamide] | 1000 to 10000
11 | C[C@H]1C[C@@H](NC(=O)CN2CCOCC2)CN(c2ccc(Cl)c3ncccc23)C1 [Compound 262, N-[(3R,5S)-1-(8-chloroquinolin-5-yl)-5-methylpiperidin-3-yl]-2-(morpholin-4-yl)acetamide] | < 1000
12 | C[C@H]1C[C@@H](NC(=O)CO)CN(c2ccc(Cl)c3ncccc23)C1 [Compound 263, N-[(3R,5S)-1-(8-chloroquinolin-5-yl)-5-methylpiperidin-3-yl]-2-hydroxyacetamide] | < 1000

More lines, now with the values ahead:

Row | IC50 [nM] | Structure (SMILES)
13 | < 1000 | C[C@H]1C[C@@H](NC(=O)CC2CCN(C)CC2)CN(c2ccc(C#N)c3nccnc23)C1 [Compound 232, N-[(3R,5S)-1-(8-cyanoquinoxalin-5-yl)-5-methylpiperidin-3-yl]-2-(1-methylpiperidin-4-yl)acetamide]
14 | < 1000 | C[C@H]1C[C@@H](NC(=O)CN2CCOCC2)CN(c2ccc(C(F)(F)F)c3ncccc23)C1 [Compound 239, N-[(3R,5S)-5-methyl-1-[8-(trifluoromethyl)quinolin-5-yl]piperidin-3-yl]-2-(morpholin-4-yl)acetamide]
15 | < 1000 | C[C@H]1C[C@@H](NC(=O)CO)CN(c2ccc(C(F)(F)F)c3ncccc23)C1 [Compound 240, 2-hydroxy-N-[(3R,5S)-5-methyl-1-[8-(trifluoromethyl)quinolin-5-yl]piperidin-3-yl]acetamide]
16 | < 1000 | C[C@H]1C[C@@H](NC(=O)C2(O)CC2)CN(c2ccc(C(F)(F)F)c3ncccc23)C1 [Compound 241, 1-hydroxy-N-[(3R,5S)-5-methyl-1-[8-(trifluoromethyl)quinolin-5-yl]piperidin-3-yl]cyclopropane-1-carboxamide]
17 | 1000 to 10000 | C[C@H]1C[C@@H](NC(C)(C)CO)CN(c2ccc(C(F)(F)F)c3ncccc23)C1 [Compound 242, 2-methyl-2-[[(3R,5S)-5-methyl-1-[8-(trifluoromethyl)quinolin-5-yl]piperidin-3-yl]amino]propan-1-ol]
18 | < 1000 | C[C@H]1C[C@@H](NC(=O)CN2CCN(C)CC2)CN(c2ccc(C(F)(F)F)c3ncccc23)C1 [Compound 243, N-[(3R,5S)-5-methyl-1-[8-(trifluoromethyl)quinolin-5-yl]piperidin-3-yl]-2-(4-methylpiperazin-1-yl)acetamide]
19 | < 1000 | C[C@H]1C[C@@H](NC(=O)CC2CCN(C)CC2)CN(c2ccc(C(F)(F)F)c3ncccc23)C1 [Compound 244, N-[(3R,5S)-5-methyl-1-[8-(trifluoromethyl)quinolin-5-yl]piperidin-3-yl]-2-(1-methylpiperidin-4-yl)acetamide]
20 | < 1000 | C[C@H]1C[C@@H](NC(=O)CC2(C)CCN(C)CC2)CN(c2ccc(C(F)(F)F)c3ncccc23)C1 [Compound 245, 2-(1,4-dimethylpiperidin-4-yl)-N-[(3R,5S)-5-methyl-1-[8-(trifluoromethyl)quinolin-5-yl]piperidin-3-yl]acetamide]
21 | < 1000 | C[C@H]1C[C@@H](NC(=O)CC2CCN(CC(F)F)CC2)CN(c2ccc(C(F)(F)F)c3ncccc23)C1 [Compound 246, 2-[1-(2,2-difluoroethyl)piperidin-4-yl]-N-[(3R,5S)-5-methyl-1-[8-(trifluoromethyl)quinolin-5-yl]piperidin-3-yl]acetamide]
22 | < 1000 | C[C@H]1C[C@@H](NC(=O)C2CC(F)(F)C2)CN(c2ccc(C(F)(F)F)c3ncccc23)C1 [Compound 247, 3,3-difluoro-N-[(3R,5S)-5-methyl-1-[8-(trifluoromethyl)quinolin-5-yl]piperidin-3-yl]cyclobutane-1-carboxamide]
23 | < 1000 | C[C@H]1C[C@@H](NC(=O)C2CCN(C)C2)CN(c2ccc(C(F)(F)F)c3ncccc23)C1 (stereo partly drawn) [Compound 248, 1-methyl-N-[(3R,5S)-5-methyl-1-[8-(trifluoromethyl)quinolin-5-yl]piperidin-3-yl]pyrrolidine-3-carboxamide]
24 | < 1000 | C[C@H]1C[C@@H](NC(=O)CC2CCN(C)CC2)CN(c2ccc(C(F)(F)F)c3nccnc23)C1 [Compound 253, N-[(3R,5S)-5-methyl-1-[8-(trifluoromethyl)quinoxalin-5-yl]piperidin-3-yl]-2-(1-methylpiperidin-4-yl)acetamide]
25 | < 1000 | C[C@H]1C[C@@H](NC(=O)CC2(C)CCN(C)CC2)CN(c2ccc(C(F)(F)F)c3nccnc23)C1 [Compound 255, 2-(1,4-dimethylpiperidin-4-yl)-N-[(3R,5S)-5-methyl-1-[8-(trifluoromethyl)quinoxalin-5-yl]piperidin-3-yl]acetamide]
26 | < 1000 | C[C@H]1C[C@@H](NC(=O)CC2CCN(CC(F)F)CC2)CN(c2ccc(C(F)(F)F)c3nccnc23)C1 [Compound 256, 2-[1-(2,2-difluoroethyl)piperidin-4-yl]-N-[(3R,5S)-5-methyl-1-[8-(trifluoromethyl)quinoxalin-5-yl]piperidin-3-yl]acetamide]
27 | < 1000 | C[C@H]1C[C@@H](NC(=O)C2CCN(C)C2)CN(c2ccc(C(F)(F)F)c3nccnc23)C1 (stereo partly drawn) [Compound 258, 1-methyl-N-[(3R,5S)-5-methyl-1-[8-(trifluoromethyl)quinoxalin-5-yl]piperidin-3-yl]pyrrolidine-3-carboxamide]
28 | < 1000 | C[C@H]1C[C@@H](NC(=O)CN2CCN(C)CC2)CN(c2ccc(C(F)(F)F)c3nccnc23)C1 [Compound 259, N-[(3R,5S)-5-methyl-1-[8-(trifluoromethyl)quinoxalin-5-yl]piperidin-3-yl]-2-(4-methylpiperazin-1-yl)acetamide]
